We go through nine molecules from patent US20230002346A1, “NEW COMPOUNDS AND METHODS” (BenevolentAl Bio Limited, priority 2019, published 2023).

SMILES strings stand for the structures. ≈ marks a conversion by molar mass, not a printed value.

The target in one data set is T1, hERG channel (Homo sapiens, UniProt Q12809).
T1 construct: expressed in transfected cells
The data set is described as follows: hERG assay (QPatch automated patch clamp, CHO cells). The class given is cell-based. To be noted: CHO cells expressing hERG, whole-cell patch clamp, 0.003 μM to 10 μM. The source says:
The human ether-a-go-go related gene (hERG) potassium channel (Kv11.1) contributes to human cardiac action potential repolarisation. Inhibition of hERG channels can prolong the human cardiac action potential, resulting in QTc prolongation and potentially lethal arrhythmias (e.g. Torsade de Pointes).
Test samples were screened against the hERG channel on a QPatch 48 gigaseal automated patch clamp platform, using a Chinese Hamster Ovary (CHO) cell line stably expressing the human ether-á-go-go related gene, which encodes the hERG channel. All recordings were made in the conventional whole-cell configuration and performed at RT ([…]) using standard single hole chips (Rchip 1.5-4M0). Series resistance (4-15Mc) was compensated by >80%. Currents were elicited from a holding potential of −90 mV using the industry standard “^+40/−40” voltage protocol, which was applied at a stimulus frequency of 0.1 Hz. On achieving the whole-cell configuration, vehicle (0.1% DMSO v/v in external recording solution) was applied to each cell in two bolus additions with a 2 min recording period between each addition. Following the vehicle period, eight increasing concentrations of test sample were applied from 0.003 μM to 10 μM as a single bolus addition per test concentration, and the effects on hERG tail current amplitude measured during the 2 min recording period. Each eight-point concentration-response curve was constructed using cumulative single sample additions of each concentration to the same cell. The positive control used in this study was verapamil hydrochloride (Tocris, Cat #0654, Batch #5A/61673) and prepared to a stock concentration of 10 mM in 100% DMSO and kept as frozen aliquots.
Data analysis: All cells passing the QC parameters (i.e. >200 pA outward current, membrane resistance and rundown) are selected as ‘passed QC’ using the QPatch software, which then calculates the mean peak current for the last three sweeps at the end of each concentration application period from the cursor positions defined. Percent inhibition is calculated for each test concentration application period as the reduction in mean cursor value (peak current or charge) relative to the cursor value measured at the end of the control (i.e. vehicle) period. The percent inhibition values from each cell are used to construct concentration-response curves employing a four parametric logistic fit with 0 and 100% inhibition levels fixed at very low and very high concentrations, respectively, and a free Hill slope factor. The IC50 (50% inhibitory concentration) and Hill coefficient are then determined, but only data from cells with Hill slopes within 0.5>nH<2.0 are included. The IC50 data reported below represents the mean (and S.D.) of at least three separate cells (N≥3). […] Compounds of the invention show reduced hERG inhibitory activity compared to the reference examples.

Data set [1] can be described thus: Brain to plasma (B:P) ratio in rat. It is filed as in vivo, Sprague Dawley Rats. The note with it: male, Sprague Dawley, po, p.o. 3.0 mg/kg. The procedure:
Male Sprague Dawley Rats 300-350 g (Charles River, UK) were group housed, n=3, under a 12 h light/dark cycle with food and water available ad libitum. At 17:00 on the day prior to dosing all food was removed. On the day of dosing animals were weighed, tail marked and dosed via oral gavage with compound at 3 mg/kg in a volume of 5 mL/kg. Animals were culled at 30 min, 1 h and 4 h post dose via intra-peritoneal administration of pentobarbital. Post mortem blood was withdrawn via cardiac puncture, and briefly stored in K2 EDTA blood tubes on ice before being spun at 14,000 g for 4 min at 4° C. Plasma was withdrawn into a 96 well plate, placed on dry ice and stored at −80° C. Brains were quickly dissected and placed on dry ice before storage at −80° C. Bioanalysis of plasma and brain samples is performed as detailed below. Methods were prepared with guidance from industry standard documents.^i,ii […] Calibration lines are prepared in control male Sprague-Dawley Rat plasma at known concentrations in the range of 1-10000 ng/mL by spiking 2.5 μL of calibration spiking solution into 25 μL control plasma. Experimental samples are thawed to RT and 25 μL aliquots are extracted alongside the calibration lines using protein precipitation (agitation for at least 5 min at RT with 400 μL of MeCN containing 25 ng/mL tolbutamide as an internal standard). Protein precipitates are separated from the extracted test compound by centrifugation at 4000 rpm for 5 min, 4° C. […] Samples are analysed by UPLC-MS/MS on either an API6500 QTrap or Waters 30 TQS mass spectrometer using previously optimised analytical MRM (multiple reaction monitoring) methods, specific to the test compound. The concentration of test compound in isolated samples is determined following analysis of the samples against the two replicates of the calibration line, injected before and after the sample set with an appropriate regression and weighting used. Only samples within 20% of the expected test concentration are included in the calibration line and any samples that fall outside of the limits of the calibration line will be deemed to be less than or above the limit of quantification (LLoQ/ALoQ). […] Calibration lines are prepared in control male Sprague-Dawley Rat brain homogenate at known concentrations in the range of 3-30000 ng/g by spiking 2.5 μL of calibration spiking solution into 25 μL control homogenate. To prepare control and experimental brain homogenates, brains are thawed, weighed and a volume of diluent added (water) in the ratio of 2 mL per gram of brain. Homogenisation of brains is performed by bead-beater homogenisation using Precellys Evolution and CK14 7 mL small ceramic bead homogenisation tubes. Aliquots of 25 μL experimental sample are extracted alongside the calibration lines using protein precipitation (agitation for at least 5 min at RT with 400 μL of MeCN containing 25 ng/mL tolbutamide as an internal standard). Protein precipitates are separated from the extracted test compound by centrifugation at 4000 rpm for 5 min, 4° C. […] Samples are analysed by UPLC-MS/MS on either an API6500 QTrap or Waters TQS mass spectrometer using previously optimised analytical MRM (multiple reaction monitoring) methods, specific to the test compound. The concentration of test compound in isolated samples is determined following analysis of the samples against the two replicates of the calibration line, injected before and after the sample set with an appropriate regression and weighting used. Only samples within 20% of the expected test concentration are included in the calibration line and any samples that fall outside of the limits of the calibration line will be deemed to be less than or above the limit of quantification (LLoQ/ALoQ). Total brain to plasma (B:P) ratios were calculated by dividing the concentration in the brain by the concentration in plasma for each timepoint. The mean brain to plasma ratio is calculated by averaging these brain to plasma ratios across certain timepoints. […]

For data set [2], the system named is Salmonella typhimurium, strains TA98 and TA100. The data set is described as follows: Ames assay (Bacterial Reverse Mutation Test). It is filed as cell-based. To be noted: TA98 and TA100, presence and absence of S-9 mix, up to 5000 μg/plate. The procedure:
Examples 50, 52 and 54 were tested, in vitro, for their ability to induce mutations in 2 histidine dependent auxotrophic mutants of Salmonella typhimurium, strains TA98 and TA100. The mutation screen was conducted using the plate incorporation method and was performed in both the presence and absence of S-9 mix (a liver post-mitochondrial fraction derived from the livers of Aroclor 1254 treated rats). The bacteria were exposed to the test items dissolved in DMSO, which was also the negative Control. The test items were tested up to the regulatory maximum dose level. The dose levels used were 5, 15, 50, 150, 500, 1500 or 5000 μg/plate, unless the highest treatment level of the test items was limited by solubility, or toxicity against the background bacterial lawn. Dose levels were expressed in terms of the free base.
There were no increases of 2-fold or greater in revertant numbers compared with negative Control values in either strain at any dose level in the presence or absence of S-9 mix, so Examples 50, 52 and 54 were not mutagenic in the Bacterial Reverse Mutation (i.e. Ames) Test under the conditions of this screen.
(In general: In the Ames test, an excess of revertant colonies over the control signals mutagenicity.)

In data set [3] the test system is 87 targets across GPCRs, ion channels, and enzymes. In words: Eurofins SafetyScreen panel. To be noted: top concentration of 10 μM. The source says: Example 50 was screened against the Eurofins SafetyScreen™ panel of 87 targets across GPCRs, ion channels, and enzymes.
Data set [4] is described as follows: Brain to plasma (B:P) ratio in rat. It is filed as in vivo, Sprague Dawley Rats. To be noted: male, Sprague Dawley, iv, i.v. 1.5 mg/kg, 3.3% NMP in 30% HPBC in water, timepoints averaged 0.5-1 h.
Data set [5] in a line: Kinetic aqueous solubility assay. The note with it: aqueous buffer, kinetic from dmso stock, 0.05M potassium phosphate buffer pH 7.4, 250 μM spike, RT. The class given is physicochemical. The procedure:
Using a 10 mM stock solution of test compound in 100% DMSO, test compounds were spiked into 0.05M potassium phosphate buffer (pH 7.4) at a final concentration of 250 μM. Samples in buffer (n=2 aqueous samples, in 96-well plates) were allowed to equilibrate at RT on an orbital shaker for 30 min (300 rpm) to induce precipitation of test compounds. The appearance of each sample was determined by visual examination and noted (clear, cloudy, precipitate observed etc.). […] The concentration of compound in phosphate buffer filtrate was determined by comparing the UV absorbance peak area of each replicate against that of the calibration standards. […] Compounds of the invention have much improved solubility compared to the reference examples.

Data set [6] addresses T2, Ba/F3 cells expressing BCR-ABL (Homo sapiens, UniProt P00519).
T2 construct: BCR (fusion partner); host or cells: Ba/F3 (IL-3 dependent murine pro-B cells); the other entry of the earlier key: BCR (P11274, Breakpoint cluster region protein)
In words: Ba/F3 CellTiter-Glo Assay. To be noted: 48 h. It is filed as cell-based. The procedure: The CellTiter-Glo luminescent cell viability assay is a homogeneous method of determining the number of viable cells in culture based on quantification of the ATP present. Briefly, IL-3 dependent Ba/F3 cells are modified to express BCR-ABL. Activity of the transformed kinase overrides IL3 dependency for cellular proliferation and survival. […] Test compounds were dispensed into 384 well plates using the Tecan D300e at a top final assay concentration of 10 μM with dosing normalised to 0.1% DMSO in 50 μL volume. […] Following a 60 min incubation at RT luminescence was read on the Pherastar FS reader.

Setting [7] is: 30% HPBC in water, timepoints averaged 0.5-4 h.

T1 sequence (Q12809 whole entry): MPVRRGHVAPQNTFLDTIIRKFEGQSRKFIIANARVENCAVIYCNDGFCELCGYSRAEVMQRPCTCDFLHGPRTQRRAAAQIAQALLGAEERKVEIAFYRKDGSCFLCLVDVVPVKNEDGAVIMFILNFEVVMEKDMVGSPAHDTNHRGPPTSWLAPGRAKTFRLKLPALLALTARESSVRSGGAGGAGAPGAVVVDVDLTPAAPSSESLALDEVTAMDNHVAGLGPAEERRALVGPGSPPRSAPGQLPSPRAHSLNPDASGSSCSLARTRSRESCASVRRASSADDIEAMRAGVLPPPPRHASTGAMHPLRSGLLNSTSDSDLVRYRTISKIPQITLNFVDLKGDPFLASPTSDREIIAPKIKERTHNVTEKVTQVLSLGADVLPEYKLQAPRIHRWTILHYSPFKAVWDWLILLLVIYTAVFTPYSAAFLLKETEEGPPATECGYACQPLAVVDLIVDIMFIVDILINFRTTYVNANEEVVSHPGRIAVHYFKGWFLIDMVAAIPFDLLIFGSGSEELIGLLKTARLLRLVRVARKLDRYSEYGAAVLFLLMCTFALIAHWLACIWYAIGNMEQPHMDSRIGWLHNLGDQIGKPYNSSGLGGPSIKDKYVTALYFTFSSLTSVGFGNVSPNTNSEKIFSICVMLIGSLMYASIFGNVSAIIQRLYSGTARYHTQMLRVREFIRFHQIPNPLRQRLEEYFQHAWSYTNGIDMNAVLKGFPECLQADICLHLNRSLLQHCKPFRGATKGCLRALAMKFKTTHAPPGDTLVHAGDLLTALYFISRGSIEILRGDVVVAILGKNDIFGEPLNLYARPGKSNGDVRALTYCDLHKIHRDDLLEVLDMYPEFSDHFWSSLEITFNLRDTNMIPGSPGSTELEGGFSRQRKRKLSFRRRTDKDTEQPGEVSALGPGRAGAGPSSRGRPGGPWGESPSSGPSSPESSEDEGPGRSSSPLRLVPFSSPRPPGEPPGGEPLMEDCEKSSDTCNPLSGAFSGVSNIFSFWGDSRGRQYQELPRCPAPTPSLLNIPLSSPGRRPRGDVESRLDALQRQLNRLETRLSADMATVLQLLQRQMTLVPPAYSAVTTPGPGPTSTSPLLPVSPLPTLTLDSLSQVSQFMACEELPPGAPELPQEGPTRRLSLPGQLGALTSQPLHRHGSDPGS
T2 sequence (P00519 28-1130 limits assumed): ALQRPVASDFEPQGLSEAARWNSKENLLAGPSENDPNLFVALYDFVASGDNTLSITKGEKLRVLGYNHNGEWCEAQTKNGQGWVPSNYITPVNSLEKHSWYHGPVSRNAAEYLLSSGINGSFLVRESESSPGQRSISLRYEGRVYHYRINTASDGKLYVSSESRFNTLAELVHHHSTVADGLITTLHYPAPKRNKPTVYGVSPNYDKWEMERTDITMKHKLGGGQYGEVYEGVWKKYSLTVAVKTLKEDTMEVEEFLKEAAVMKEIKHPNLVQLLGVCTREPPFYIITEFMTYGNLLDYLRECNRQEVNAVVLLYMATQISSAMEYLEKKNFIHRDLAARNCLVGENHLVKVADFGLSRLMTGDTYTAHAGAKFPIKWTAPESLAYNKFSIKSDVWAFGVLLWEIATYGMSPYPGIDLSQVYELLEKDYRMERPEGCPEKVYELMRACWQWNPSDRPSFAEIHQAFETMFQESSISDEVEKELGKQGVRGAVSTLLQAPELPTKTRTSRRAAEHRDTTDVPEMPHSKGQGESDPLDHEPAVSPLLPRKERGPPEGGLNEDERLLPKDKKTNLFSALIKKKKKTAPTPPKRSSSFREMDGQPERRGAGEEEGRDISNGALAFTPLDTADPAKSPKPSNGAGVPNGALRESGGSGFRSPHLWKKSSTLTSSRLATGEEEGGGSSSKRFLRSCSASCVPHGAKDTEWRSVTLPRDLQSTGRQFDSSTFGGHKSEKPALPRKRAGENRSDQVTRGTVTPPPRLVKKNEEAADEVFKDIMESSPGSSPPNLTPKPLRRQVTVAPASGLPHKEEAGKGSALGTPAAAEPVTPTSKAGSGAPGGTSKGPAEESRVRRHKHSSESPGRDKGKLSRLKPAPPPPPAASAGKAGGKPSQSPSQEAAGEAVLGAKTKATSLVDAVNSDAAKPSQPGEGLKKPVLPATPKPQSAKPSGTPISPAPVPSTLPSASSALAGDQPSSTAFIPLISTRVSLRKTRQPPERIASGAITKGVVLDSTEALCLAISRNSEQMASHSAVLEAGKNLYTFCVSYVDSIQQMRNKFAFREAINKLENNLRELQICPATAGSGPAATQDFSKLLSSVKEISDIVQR

In the case of `O=C(Nc1ccc(OC(F)(F)Cl)cc1)c1ccc(=O)n(-c2cccc(F)c2)c1` [Example 47, N-[4-(Chlorodifluoromethoxy)phenyl]-1-(3-fluorophenyl)-6-oxo-1,6-dihydropyridine-3-carboxamide], the IC50 (in general, the point on the concentration scale where inhibition reaches its midpoint) on hERG channel is > 10 µM. The Kp (commonly tissue or fluid exposure divided by exposure in the circulation) in data set [1] (setting [7]) is 1.54.
Regarding `O=C(Nc1ccc(OC(F)(F)F)cc1)c1ccc(=O)n(-c2cncnc2)c1` [Example 50, 6-Oxo-1-(pyrimidin-5-yl)-N-[4-(trifluoromethoxy)phenyl]-1.6-dihydropyridine-3-carboxamide], the “mutagenicity in the Bacterial Reverse Mutation (Ames) Test” value in data set [2] was “not mutagenic”. The “number of 87 targets inhibited >50%” value in data set [3] is listed as 2. Further, the maximum inhibition in data set [3] (87 targets) was 65%. The IC50 on hERG channel was > 10 µM.
On to `O=C(Nc1ccc(OC(F)(F)Cl)cc1)c1ccc(=O)n(-c2cncnc2)c1` [Example 51, N-[4-(Chlorodifluoromethoxy)phenyl]-6-oxo-1-(pyrimidin-5-yl)-1,6-dihydropyridine-3-carboxamide], for which the Kp in data set [4] came to 0.67. Besides, the solubility (usually the dissolved amount per volume that the medium holds) at 30 min in data set [5] stood at 190 µM (≈ 74.6 µg/mL). The IC50 at hERG channel was > 10 µM.
Regarding `Cn1cc(-n2cc(C(=O)Nc3ccc(OC(F)(F)Cl)cc3)ccc2=O)cn1` [Example 52, N-[4-[Chloro(difluoro)methoxy]phenyl]-1-(1-methylpyrazol-4-yl)-6-oxo-pyridine-3-carboxamide], the “mutagenicity in the Bacterial Reverse Mutation (Ames) Test” value in data set [2] is recorded as “not mutagenic”. The same molecule yielded a solubility at 30 min in data set [5] of 160 µM (≈ 63.2 µg/mL). Further, at hERG channel, the IC50 was > 10 µM.
In data set [5], `O=C(Nc1ccc(OC(F)(F)Cl)cc1)c1ccc(=O)n(-c2cccnc2)c1` [Example 53, N-[4-[Chloro(difluoro)methoxy]phenyl]-6-oxo-1-(3-pyridyl)pyridine-3-carboxamide] registered a solubility at 30 min of 170 µM (≈ 66.6 µg/mL). For the same molecule, at hERG channel, the IC50 was > 10 µM. The Kp in data set [1] (5% NMP in 30% HPBC in water, timepoints averaged 0.5-1 h) amounted to 0.82.
As for `COc1cncc(-n2cc(C(=O)Nc3ccc(OC(F)(F)Cl)cc3)ccc2=O)c1` [Example 61, N-[4-[Chloro(difluoro)methoxy]phenyl]-1-(5-methoxy-3-pyridyl)-6-oxo-pyridine-3-carboxamide], the solubility at 30 min in data set [5] was found to be 160 µM (≈ 67.5 µg/mL). Moreover, the IC50 against hERG channel was > 10 µM. Besides, in data set [1] (setting [7]), the Kp was determined as 0.45.
Take `O=C(Nc1ccc(OC(F)(F)Cl)cc1)c1ccc(=O)n(-c2cncc(Cl)c2)c1` [Example 63, N-[4-[Chloro(difluoro)methoxy]phenyl]-1-(5-chloro-3-pyridyl)-6-oxo-pyridine-3-carboxamide]: in data set [5], the solubility at 30 min is 120 µM (≈ 51.1 µg/mL). In addition, the IC50 against hERG channel was > 10 µM. Also, the Kp in data set [1] (setting [7]) is 0.64.
As for `O=C(Nc1ccc(OC(F)(F)Cl)cc1)c1ccc(=O)n(-c2ccc[n+]([O-])c2)c1` [Example 78, 5-{[4-(Chlorodifluoromethoxy)phenyl]carbamoyl}-2-oxo-2H-[1.3′-bipyridin]-1′-ium-1′-olate], the IC50 in data set [6] is 0.151 to 1 µM. For the same molecule, the solubility at 30 min in data set [5] is 150 µM (≈ 61.2 µg/mL).
For `Cn1cc(-n2cc(C(=O)Nc3ccc(OC(F)(F)Cl)cc3)cc(C#N)c2=O)cn1` [Example 79, N-[4-(Chlorodifluoromethoxy)phenyl]-5-cyano-1-(1-methyl-1H-pyrazol-4-yl)-6-oxo-1.6-dihydropyridine-3-carboxamide], in data set [6], the concentration for half-maximal inhibition (IC50) was in the range of 0.151 to 1 µM.
